Here are results for 31 compounds from US11447505B1, “Pyrrolo[2,3-b]pyridine compounds and their use in the treatment of cancer” (priority 2017, dated 2022).

The target in one assay is MRCKα (Homo sapiens (Human), UniProt Q5VT25). In words: MRCKα kinase assay (IMAP fluorescence polarization). The class given is biochemical. The following applies: 1 μM ATP; read-out: MRCK-a Average Ki. From the text:
(§1) MRCKα, MRCKβ, ROCK1 and ROCK2 Kinase Assays
In general terms: Fluorescence polarisation rises when a labelled molecule tumbles more slowly, as on binding a larger partner.

A further assay addresses ROCK2 (Homo sapiens (Human), UniProt O75116). In words: ROCK2 kinase assay (IMAP fluorescence polarization). Format: biochemical. The following applies: 1 μM ATP; read-out: ROCK2 Average Ki.
For a further assay, the target named is MRCKβ (Homo sapiens (Human), UniProt Q9Y5S2). As to the kind of experiment: MRCKβ kinase assay (IMAP fluorescence polarization). Format: biochemical. The following applies: 1 μM ATP; read-out: MRCK-B Average Ki.
Description: as §1

For another assay, the target named is ROCK1 (Homo sapiens (Human), UniProt Q13464). The following applies: read-out: ROCK1 Average Ki; 1 μM ATP.
Sequence of ROCK1 (Q13464 2-1354 limits assumed): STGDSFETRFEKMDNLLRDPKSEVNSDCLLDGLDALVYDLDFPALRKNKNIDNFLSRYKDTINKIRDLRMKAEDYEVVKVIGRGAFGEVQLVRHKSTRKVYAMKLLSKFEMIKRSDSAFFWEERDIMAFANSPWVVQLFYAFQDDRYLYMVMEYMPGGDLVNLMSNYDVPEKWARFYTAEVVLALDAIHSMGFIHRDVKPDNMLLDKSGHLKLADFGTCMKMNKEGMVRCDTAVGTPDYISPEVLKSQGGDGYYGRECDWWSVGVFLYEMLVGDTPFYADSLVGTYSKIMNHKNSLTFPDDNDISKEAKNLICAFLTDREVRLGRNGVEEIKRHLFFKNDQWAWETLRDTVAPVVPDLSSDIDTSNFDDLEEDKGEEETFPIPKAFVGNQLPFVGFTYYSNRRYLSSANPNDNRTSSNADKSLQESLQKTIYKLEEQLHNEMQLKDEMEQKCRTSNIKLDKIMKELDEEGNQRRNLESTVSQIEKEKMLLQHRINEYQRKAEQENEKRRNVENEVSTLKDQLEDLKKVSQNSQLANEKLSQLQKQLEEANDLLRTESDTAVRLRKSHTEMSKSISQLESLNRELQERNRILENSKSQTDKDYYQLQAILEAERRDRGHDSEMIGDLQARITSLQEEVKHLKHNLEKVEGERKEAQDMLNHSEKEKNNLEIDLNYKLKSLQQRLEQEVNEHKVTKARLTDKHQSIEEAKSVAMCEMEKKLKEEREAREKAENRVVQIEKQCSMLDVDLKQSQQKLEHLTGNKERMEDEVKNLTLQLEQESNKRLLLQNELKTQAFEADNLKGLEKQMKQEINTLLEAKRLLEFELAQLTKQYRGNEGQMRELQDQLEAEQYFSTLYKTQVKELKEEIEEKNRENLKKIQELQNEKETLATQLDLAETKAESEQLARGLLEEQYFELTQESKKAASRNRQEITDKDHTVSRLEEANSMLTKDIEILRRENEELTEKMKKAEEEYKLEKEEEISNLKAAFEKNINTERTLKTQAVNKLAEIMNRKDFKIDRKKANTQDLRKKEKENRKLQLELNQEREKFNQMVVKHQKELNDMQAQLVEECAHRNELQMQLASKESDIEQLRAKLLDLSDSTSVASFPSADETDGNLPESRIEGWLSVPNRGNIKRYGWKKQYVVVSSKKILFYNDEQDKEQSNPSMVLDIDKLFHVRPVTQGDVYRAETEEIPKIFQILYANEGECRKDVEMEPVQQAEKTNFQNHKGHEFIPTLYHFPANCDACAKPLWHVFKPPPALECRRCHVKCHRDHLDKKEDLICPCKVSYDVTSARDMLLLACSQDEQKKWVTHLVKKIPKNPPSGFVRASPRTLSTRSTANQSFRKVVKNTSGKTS

Sequence of MRCKα (Q5VT25 whole entry): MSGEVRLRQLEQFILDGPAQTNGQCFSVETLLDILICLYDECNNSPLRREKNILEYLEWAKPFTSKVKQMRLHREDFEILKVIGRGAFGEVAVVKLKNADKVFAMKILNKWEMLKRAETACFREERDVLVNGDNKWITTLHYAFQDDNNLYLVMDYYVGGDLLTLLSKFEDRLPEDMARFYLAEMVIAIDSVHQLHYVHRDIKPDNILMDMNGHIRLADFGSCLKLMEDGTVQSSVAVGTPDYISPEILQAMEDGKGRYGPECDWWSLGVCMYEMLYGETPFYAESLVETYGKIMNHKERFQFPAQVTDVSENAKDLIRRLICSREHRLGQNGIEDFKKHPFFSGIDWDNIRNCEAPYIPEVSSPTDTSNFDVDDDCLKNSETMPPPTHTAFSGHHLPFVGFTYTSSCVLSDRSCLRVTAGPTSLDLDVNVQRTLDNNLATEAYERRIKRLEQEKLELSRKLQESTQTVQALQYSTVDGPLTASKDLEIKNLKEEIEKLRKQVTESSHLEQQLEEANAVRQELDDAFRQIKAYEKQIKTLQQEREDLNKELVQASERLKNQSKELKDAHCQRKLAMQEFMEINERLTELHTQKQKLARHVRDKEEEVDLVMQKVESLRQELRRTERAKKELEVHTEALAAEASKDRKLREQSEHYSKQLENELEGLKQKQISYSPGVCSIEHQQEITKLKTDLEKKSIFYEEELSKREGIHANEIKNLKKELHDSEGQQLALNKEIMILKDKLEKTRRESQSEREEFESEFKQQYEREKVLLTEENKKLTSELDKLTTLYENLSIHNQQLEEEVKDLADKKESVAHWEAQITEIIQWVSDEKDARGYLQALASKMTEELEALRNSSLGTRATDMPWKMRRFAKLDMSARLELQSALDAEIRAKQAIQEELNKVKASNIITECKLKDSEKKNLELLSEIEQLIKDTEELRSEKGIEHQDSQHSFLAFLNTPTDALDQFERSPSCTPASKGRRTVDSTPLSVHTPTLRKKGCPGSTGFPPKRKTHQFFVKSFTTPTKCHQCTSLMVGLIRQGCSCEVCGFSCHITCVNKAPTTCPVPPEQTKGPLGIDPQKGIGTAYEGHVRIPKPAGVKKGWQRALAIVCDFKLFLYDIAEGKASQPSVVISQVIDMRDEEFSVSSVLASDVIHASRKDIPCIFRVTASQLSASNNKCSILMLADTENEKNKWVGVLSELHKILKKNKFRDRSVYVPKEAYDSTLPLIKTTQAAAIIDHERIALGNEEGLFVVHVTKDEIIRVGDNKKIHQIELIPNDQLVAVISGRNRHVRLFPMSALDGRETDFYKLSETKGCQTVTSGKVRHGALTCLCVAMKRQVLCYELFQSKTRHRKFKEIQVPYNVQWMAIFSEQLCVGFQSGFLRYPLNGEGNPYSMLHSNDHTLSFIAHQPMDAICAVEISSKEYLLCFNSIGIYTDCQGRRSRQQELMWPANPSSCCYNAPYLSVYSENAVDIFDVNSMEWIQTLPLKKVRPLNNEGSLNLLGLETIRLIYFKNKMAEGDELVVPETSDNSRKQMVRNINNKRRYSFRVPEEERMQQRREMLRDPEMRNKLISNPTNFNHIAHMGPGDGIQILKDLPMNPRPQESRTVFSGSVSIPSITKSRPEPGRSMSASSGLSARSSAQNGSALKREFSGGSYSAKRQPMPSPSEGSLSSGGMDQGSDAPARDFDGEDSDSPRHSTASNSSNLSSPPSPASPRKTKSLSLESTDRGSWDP
Sequence of ROCK2 (O75116 whole entry): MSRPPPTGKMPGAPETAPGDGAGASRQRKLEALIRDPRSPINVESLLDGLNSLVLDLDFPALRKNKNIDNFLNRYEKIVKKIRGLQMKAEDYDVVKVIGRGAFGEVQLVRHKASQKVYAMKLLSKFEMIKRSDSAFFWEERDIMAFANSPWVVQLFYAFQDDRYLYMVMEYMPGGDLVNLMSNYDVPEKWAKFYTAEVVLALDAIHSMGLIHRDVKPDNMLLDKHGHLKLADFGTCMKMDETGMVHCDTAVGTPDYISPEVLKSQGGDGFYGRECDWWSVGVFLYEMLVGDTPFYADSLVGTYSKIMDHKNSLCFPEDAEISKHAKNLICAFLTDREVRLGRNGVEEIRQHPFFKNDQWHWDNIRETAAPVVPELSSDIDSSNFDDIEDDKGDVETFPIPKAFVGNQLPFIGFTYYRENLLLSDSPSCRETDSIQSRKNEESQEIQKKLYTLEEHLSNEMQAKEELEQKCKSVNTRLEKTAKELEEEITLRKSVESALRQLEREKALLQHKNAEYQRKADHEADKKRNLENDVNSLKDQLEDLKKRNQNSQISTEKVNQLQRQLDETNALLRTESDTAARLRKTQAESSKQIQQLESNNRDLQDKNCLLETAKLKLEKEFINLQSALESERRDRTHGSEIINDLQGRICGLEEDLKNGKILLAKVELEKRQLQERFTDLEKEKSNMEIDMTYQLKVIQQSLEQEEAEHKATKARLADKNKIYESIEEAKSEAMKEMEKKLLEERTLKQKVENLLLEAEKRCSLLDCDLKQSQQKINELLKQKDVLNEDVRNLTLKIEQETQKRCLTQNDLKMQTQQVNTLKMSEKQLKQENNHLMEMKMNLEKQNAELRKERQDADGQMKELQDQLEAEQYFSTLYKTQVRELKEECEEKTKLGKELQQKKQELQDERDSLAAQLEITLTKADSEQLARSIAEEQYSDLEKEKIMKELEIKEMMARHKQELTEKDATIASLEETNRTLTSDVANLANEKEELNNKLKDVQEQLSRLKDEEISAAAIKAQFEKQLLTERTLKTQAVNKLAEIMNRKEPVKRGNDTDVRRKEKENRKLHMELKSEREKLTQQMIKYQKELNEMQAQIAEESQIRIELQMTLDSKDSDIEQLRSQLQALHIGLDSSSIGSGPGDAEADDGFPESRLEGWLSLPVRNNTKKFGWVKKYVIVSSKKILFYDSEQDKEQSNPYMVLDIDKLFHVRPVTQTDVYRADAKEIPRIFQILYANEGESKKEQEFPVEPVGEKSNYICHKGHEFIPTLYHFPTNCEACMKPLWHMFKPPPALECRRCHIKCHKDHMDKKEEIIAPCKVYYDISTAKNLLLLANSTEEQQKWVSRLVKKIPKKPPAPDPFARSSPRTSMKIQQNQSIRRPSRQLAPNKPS

With `N#Cc1c[nH]c2nccc(N3CCCCC3)c12` [Example E35, 4-(1-piperidyl)-1H-pyrrolo[2,3-b]pyridine-3-carbonitrile], the Ki on MRCKα was 14.3 nM; at ROCK2, 16 nM; on MRCKβ, 9.01 nM; on ROCK1 it was 57.9 nM.

On to `CN[C@H]1CCCN(c2ccnc3[nH]cc(-c4cnccn4)c23)C1` [Example E72, (3S)-N-methyl-1-(3-pyrazin-2-yl-1H-pyrrolo[2,3-b]pyridin-4-yl)piperidin-3-amine], for which the Ki on MRCKα is 0.629 nM; at ROCK2, 268 nM; at MRCKβ, 2.98 nM; on ROCK1, 51100 nM.

Take `c1ncc(-c2c[nH]c3nccc(N4CCC5(CCCNC5)CC4)c23)cn1` [Example E193, 9-(3-pyrimidin-5-yl-1H-pyrrolo[2,3-b]pyridin-4-yl)-2,9-diazaspiro[5.5]undecane]: the Ki was 0.217 nM on MRCKα, 15.2 nM at ROCK2, 0.969 nM at MRCKβ and 22.3 nM on ROCK1.

On to `c1ncc(-c2c[nH]c3nccc(N4CCCCC4)c23)cn1` [Example E20, 4-(1-piperidyl)-3-pyrimidin-5-yl-1H-pyrrolo[2,3-b]pyridine], for which the Ki on MRCKα was 14.2 nM; at ROCK2 it was 516 nM; at MRCKβ, 40.7 nM.

In the case of `NCC1CCN(c2ccnc3[nH]cc(-c4cncnc4)c23)CC1` [Example E105, [1-(3-pyrimidin-5-yl-1H-pyrrolo[2,3-b]pyridin-4-yl)-4-piperidyl]methanamine], the Ki at ROCK2 stood at 9.5 nM; at MRCKβ, 1 nM; at ROCK1 it was 10.1 nM.

Consider `Cn1cc(-c2c[nH]c3nccc(N4CCC[C@](N)(N5CCC(N)CC5)C4)c23)cn1` [Example E241], for which the Ki at ROCK2 came out at 224 nM; at MRCKβ, 11.9 nM; on ROCK1 it was 543 nM.

Consider `CN1CCN(C(=O)[C@@H]2CCCN2c2ccnc3[nH]cc(C#N)c23)CC1` [Example E204, 4-[(2S)-2-(4-methylpiperazine-1-carbonyl)pyrrolidin-1-yl]-1H-pyrrolo[2,3-b]pyridine-3-carbonitrile], for which the Ki on ROCK2 was 762 nM; on MRCKβ, 119 nM; on ROCK1, 558 nM.

With `c1ncc(-c2c[nH]c3nccc(N4CC5CNCC5C4)c23)cn1` (stereo not drawn) [Example E199, 4-(2,3,3a,4,6,6a-hexahydro-1H-pyrrolo[3,4-c]pyrrol-5-yl)-3-pyrimidin-5-yl-1H-pyrrolo[2,3-b]pyridine], the values for the Ki at ROCK2, at MRCKβ and at ROCK1 were 199 nM, 6.32 nM and 222 nM, respectively.

On to `N#Cc1c[nH]c2nccc(N3CCCC3Cc3ccccc3)c12` (stereo not drawn) [Example E107, 4-(2-benzylpyrrolidin-1-yl)-1H-pyrrolo[2,3-b]pyridine-3-carbonitrile], for which the Ki came to 2820 nM on ROCK2, 90.3 nM at MRCKβ and 1880 nM at ROCK1.

For the compound `CCN1CCCC[C@]12CCCN(c1ccnc3[nH]cc(-c4cncnc4)c13)C2` [Example E208, (6R)-1-ethyl-8-(3-pyrimidin-5-yl-1H-pyrrolo[2,3-b]pyridin-4-yl)-1,8-diazaspiro[5.5]undecane], the Ki worked out at 396 nM at ROCK2, 9.73 nM on MRCKβ and 1210 nM on ROCK1.

As to `c1ncc(-c2c[nH]c3nccc(NC4CCCCNC4)c23)cn1` (stereo not drawn) [Example E85, N-(azepan-3-yl)-3-pyrimidin-5-yl-1H-pyrrolo[2,3-b]pyridin-4-amine], the inhibition constant (Ki) on ROCK2 is 460 nM; on MRCKβ it was 14.1 nM; on ROCK1, 421 nM.

With `c1cncc(-c2c[nH]c3nccc(N4CCC4)c23)c1` [Example E26, 4-(azetidin-1-yl)-3-(3-pyridyl)-1H-pyrrolo[2,3-b]pyridine], the Ki came out at 263 nM on ROCK2, 57.6 nM at MRCKβ and 545 nM at ROCK1.

For `c1cc(N2CCC2)c2c(-c3cn[nH]c3)c[nH]c2n1` [Example E27, 4-(azetidin-1-yl)-3-(1H-pyrazol-4-yl)-1H-pyrrolo[2,3-b]pyridine], the Ki worked out at 381 nM on ROCK2, 130 nM at MRCKβ and 713 nM at ROCK1.

Consider `CN[C@H]1CCCN(c2ccnc3[nH]cc(-c4ccccn4)c23)C1` [Example E49, (3S)-N-methyl-1-[3-(2-pyridyl)-1H-pyrrolo[2,3-b]pyridin-4-yl]piperidin-3-amine], for which the Ki is 272 nM on ROCK2, 0.506 nM on MRCKβ and 50800 nM on ROCK1.

Consider `CN[C@H]1CCCN(c2ccnc3[nH]cc(-c4ncccc4F)c23)C1` [Example E48, (3S)-1-[3-(3-fluoro-2-pyridyl)-1H-pyrrolo[2,3-b]pyridin-4-yl]-N-methyl-piperidin-3-amine], for which the figures for the Ki at ROCK2, at MRCKβ and at ROCK1 were 756 nM, 1.73 nM and 3530 nM, respectively.

On to `c1ncc(-c2c[nH]c3nccc(NCC4CCCNC4)c23)cn1` (stereo not drawn) [Example E239], for which the Ki on ROCK2 came to 93.3 nM; at MRCKβ, 7.85 nM; at ROCK1, 103 nM.

`N#Cc1cc(-c2c[nH]c3nccc(N4CCCCC4)c23)cnc1N` [Example E7, 2-amino-5-[4-(1-piperidyl)-1H-pyrrolo[2,3-b]pyridin-3-yl]pyridine-3-carbonitrile]: the figures for the Ki on ROCK2, on MRCKβ and at ROCK1 were 245 nM, 357 nM and 501 nM, respectively.

For `CNC(=O)c1cncc(-c2c[nH]c3nccc(N4CCCCC4)c23)c1` [Example E13, N-methyl-5-[4-(1-piperidyl)-1H-pyrrolo[2,3-b]pyridin-3-yl]pyridine-3-carboxamide], the Ki came to 1740 nM on ROCK2, 378 nM on MRCKβ and 10000 nM on ROCK1.

`COCCN[C@H]1CCCN(c2ccnc3[nH]cc(-c4cncnc4)c23)C1` [Example E73, (3S)-N-(2-methoxyethyl)-1-(3-pyrimidin-5-yl-1H-pyrrolo[2,3-b]pyridin-4-yl)piperidin-3-amine]: the Ki at ROCK2 turned out to be 964 nM; on MRCKβ, 5.71 nM; on ROCK1, 2060 nM.

Regarding `c1ncc(-c2c[nH]c3nccc(N4CCC[C@H](N5CCOCC5)C4)c23)cn1` [Example E96, 4-[(3S)-1-(3-pyrimidin-5-yl-1H-pyrrolo[2,3-b]pyridin-4-yl)-3-piperidyl]morpholine], the Ki is 876 nM on ROCK2, 28.8 nM at MRCKβ and 1300 nM on ROCK1.

`CCN[C@H]1CCCN(c2ccnc3[nH]cc(-c4ccnnc4)c23)C1` [Example E71, (3S)—N-ethyl-1-(3-pyridazin-4-yl-1H-pyrrolo[2,3-b]pyridin-4-yl)piperidin-3-amine]: the Ki is 73.9 nM at ROCK2, 0.802 nM on MRCKβ and 152 nM on ROCK1.

As to `c1cnnc(-c2c[nH]c3nccc(N4CCCCC4)c23)c1` [Example E15, 4-(1-piperidyl)-3-pyridazin-3-yl-1H-pyrrolo[2,3-b]pyridine], the Ki at ROCK2 is 362 nM; at MRCKβ it was 56.5 nM; on ROCK1, 482 nM.

As to `N#Cc1cncc(-c2c[nH]c3nccc(N4CCCCC4)c23)c1` [Example E8, 5-[4-(1-piperidyl)-1H-pyrrolo[2,3-b]pyridin-3-yl]pyridine-3-carbonitrile], the Ki turned out to be 3270 nM at ROCK2, 541 nM on MRCKβ and 10000 nM at ROCK1.

In the case of `N#Cc1c[nH]c2nccc(N3CCCC3c3ccccc3)c12` (stereo not drawn) [Example E113, 4-(2-phenylpyrrolidin-1-yl)-1H-pyrrolo[2,3-b]pyridine-3-carbonitrile], the Ki was determined as 144 nM at ROCK2, 111 nM on MRCKβ and 388 nM at ROCK1.

As for `c1ncc(-c2c[nH]c3nccc(OCC4CCCNC4)c23)cn1` (stereo not drawn) [Example E220, 4-(3-piperidylmethoxy)-3-pyrimidin-5-yl-1H-pyrrolo[2,3-b]pyridine], the Ki on ROCK2 worked out at 40.7 nM; at MRCKβ, 1.07 nM; at ROCK1, 34 nM.

For the compound `CNCC1CCCN(c2ccnc3[nH]cc(-c4cncnc4)c23)C1` (stereo not drawn) [Example E90, N-methyl-1-[1-(3-pyrimidin-5-yl-1H-pyrrolo[2,3-b]pyridin-4-yl)-3-piperidyl]methanamine], the inhibitory constant (Ki) at ROCK2 is 217 nM; on MRCKβ, 6.01 nM; on ROCK1 it was 148 nM.

For the compound `CN[C@H]1CCCN(c2ccnc3[nH]cc(-c4cnsc4)c23)C1` [Example E67, (3S)-1-(3-isothiazol-4-yl-1H-pyrrolo[2,3-b]pyridin-4-yl)-N-methyl-piperidin-3-amine], the inhibition constant Ki on ROCK2 was 36.4 nM; on MRCKβ, 0.273 nM; at ROCK1, 109 nM.

As to `c1ccc2c(-c3c[nH]c4nccc(N5CCCCC5)c34)n[nH]c2c1` [Example E17, 3-(1H-indazol-3-yl)-4-(1-piperidyl)-1H-pyrrolo[2,3-b]pyridine], the Ki turned out to be 10000 nM on ROCK2, 696 nM at MRCKβ and 10000 nM at ROCK1.

On to `Cn1ccc(-c2c[nH]c3nccc(N4CCCCC4)c23)n1` [Example E22, 3-(1-methylpyrazol-3-yl)-4-(1-piperidyl)-1H-pyrrolo[2,3-b]pyridine], for which the results for the Ki at ROCK2, on MRCKβ and on ROCK1 were 3220 nM, 656 nM and 10000 nM, respectively.

As for `CN1CCC[C@H](COc2ccnc3[nH]cc(-c4cncnc4)c23)C1` [Example E226, 3-pyrimidin-5-yl-4-[[(3S)-1-methyl-3-piperidyl]methoxy]-1H-pyrrolo[2,3-b]pyridine], the Ki turned out to be 111 nM at ROCK2, 5 nM at MRCKβ and 150 nM on ROCK1.

Take `Nc1ccc(-c2c[nH]c3nccc(N4CCCCC4)c23)cn1` [Example E10, 5-[4-(1-piperidyl)-1H-pyrrolo[2,3-b]pyridin-3-yl]pyridin-2-amine]: the Ki on ROCK2 was 45.7 nM; at MRCKβ, 51.8 nM; on ROCK1, 74.9 nM.

The term Ki denotes the equilibrium dissociation constant of an inhibitor or competing ligand from its target.
